Experimental data taken from patent US8076338B2, “Kinase modulators and methods of use” (Exelixis, Inc., priority 2004, dated 2011).

Assays:
p70S6K = p70S6K (Homo sapiens, UniProt P23443); test: Luciferase-coupled chemiluminescence kinase assay (ATP consumption); format: biochemical; details: Table 1; class symbols per key
Experimental: (§1) One measure of inhibition is Ki. […] The Ki for a compound is determined from the IC50 based on three assumptions. First, only one compound molecule binds to the enzyme and there is no cooperativity. […] Third, the enzymatic rate of the enzyme-inhibitor complex is zero. The rate data (i.e. compound concentration) are fitted to the equation: […]
(§2) Luciferase-Coupled Chemiluminescence Assay Protocol
(§3) Kinase activity is measured as the percent of ATP consumed following the kinase reaction using luciferase-luciferin-coupled chemiluminescence. Reactions were conducted in 384-well white, medium binding microtiter plates (Greiner). Kinase reactions were initiated by combining test compounds, ATP and kinase in a 20 uL volume. The reaction mixture was incubated at ambient temperature for 3 hrs. For p70S6K and/or AktK, 2.5-5 nM of the enzyme was pre-incubated with compound in 20 mM Tris pH 7.5, 10 mM MgCl2, 0.03% TX-100, and 1 mM DTT for 30 minutes at room temperature. Following the kinase reaction, a 20 μL aliquot of luciferase-luciferin mix was added and the chemiluminescence signal measured using a Victor^2 plate reader (Perkin Elmer). The luciferase-luciferin mix contained 50 mM HEPES, pH 7.8, 67 mM oxalic acid (pH 7.8), 5 (or 50) mM DTT, 0.4% Triton X-100, 0.25 mg/mL coenzyme A, 63 μM AMP, 28 μg/1 mL luciferin and 40,000 units/mL luciferase. Total ATP consumption was limited to 25-60% and the IC50 values correlate well with those determined by radiometric assays.

AktK = AktK (Homo sapiens, UniProt P31749); test: as above; format: biochemical; details: Table 1; class symbols per key; read-out: AKT-1 IC50
AktK, sequence (P31749 whole entry): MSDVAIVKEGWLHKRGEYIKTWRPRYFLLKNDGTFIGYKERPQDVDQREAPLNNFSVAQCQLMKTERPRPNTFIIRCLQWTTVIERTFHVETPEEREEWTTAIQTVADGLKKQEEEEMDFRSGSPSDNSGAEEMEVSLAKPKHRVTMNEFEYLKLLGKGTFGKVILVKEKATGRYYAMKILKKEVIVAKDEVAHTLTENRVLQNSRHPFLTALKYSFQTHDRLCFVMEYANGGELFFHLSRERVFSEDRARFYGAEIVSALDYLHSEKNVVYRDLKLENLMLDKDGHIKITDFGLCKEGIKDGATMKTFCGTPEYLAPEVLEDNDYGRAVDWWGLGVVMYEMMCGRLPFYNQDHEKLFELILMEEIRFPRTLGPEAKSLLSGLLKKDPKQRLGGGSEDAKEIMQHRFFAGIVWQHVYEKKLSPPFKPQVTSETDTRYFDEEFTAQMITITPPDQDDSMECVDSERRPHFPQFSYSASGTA
Experimental: as §1, §2, §3

p70S6K, sequence (P23443 whole entry): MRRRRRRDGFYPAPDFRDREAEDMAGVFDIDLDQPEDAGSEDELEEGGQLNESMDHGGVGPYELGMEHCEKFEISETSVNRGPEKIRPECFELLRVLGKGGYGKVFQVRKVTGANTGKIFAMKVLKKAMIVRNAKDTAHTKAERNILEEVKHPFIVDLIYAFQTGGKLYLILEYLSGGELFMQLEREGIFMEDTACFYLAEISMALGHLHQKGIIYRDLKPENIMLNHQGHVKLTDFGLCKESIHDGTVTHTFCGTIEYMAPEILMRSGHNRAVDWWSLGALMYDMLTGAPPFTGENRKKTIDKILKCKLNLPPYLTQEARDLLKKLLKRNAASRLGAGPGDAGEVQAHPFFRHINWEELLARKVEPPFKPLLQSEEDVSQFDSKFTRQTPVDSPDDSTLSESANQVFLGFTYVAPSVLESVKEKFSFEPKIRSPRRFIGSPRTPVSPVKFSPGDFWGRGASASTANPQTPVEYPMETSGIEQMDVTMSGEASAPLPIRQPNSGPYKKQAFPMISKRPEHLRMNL

SMILES: CCN(CC)CCOc1cc(Cl)cc(N2CCN(c3ncnc4c3c(C(F)(F)F)nn4C(C)(C)C)CC2)c1C [Entry 33, 2-[(5-chloro-3-{4-[1-(1,1-dimethylethyl)-3-(tri-fluoromethyl)-1H-pyrazolo[3,4-d]pyrimidin-4-yl]piperazin-1-yl}-2-methylphenyl)oxy]-N,N-diethylethanamine]
- IC50 (p70S6K): 1000 to 10000 nM
- IC50 (AktK): 1000 to 10000 nM

SMILES: CCN(CC)CCOc1cc(Cl)cc(N2CCN(c3ncnc4[nH]nc(C(F)(F)F)c34)CC2)c1C [Entry 34, 2-[(5-chloro-2-methyl-3-{4-[3-(trifluoromethyl)-1H-pyrazolo[3,4-d]pyrimidin-4-yl]piperazin-1-yl}phenyl)oxy]-N,N-diethylethanamine]
- IC50 (p70S6K): < 100 nM
- IC50 (AktK): 100 to 1000 nM

SMILES: CCc1n[nH]c2ncnc(N3CCN(c4cc(Cl)cc(OCCCN5CCCC5)c4C)CC3)c12 [Entry 35, 4-(4-{5-chloro-2-methyl-3-[(3-pyrrolidin-1-ylpropyl)oxy]phenyl}piperazin-1-yl)-3-ethyl-1H-pyrazolo[3,4-d]pyrimidine]
- IC50 (p70S6K): < 100 nM
- IC50 (AktK): 100 to 1000 nM

SMILES: CCc1n[nH]c2ncnc(N3CCN(c4cc(Cl)cc(OCCCN5CCN(C)CC5)c4C)CC3)c12 [Entry 36, 4-[4-(5-chloro-2-methyl-3-{[3-(4-methylpiperazin-1-yl)propyl]oxy}phenyl)piperazin-1-yl]-3-ethyl-1H-pyrazolo[3,4-d]pyrimidine]
- IC50 (p70S6K): < 100 nM
- IC50 (AktK): 100 to 1000 nM

SMILES: Cc1c(OCCCN2CCCCC2)cc(Cl)cc1N1CCN(c2ncnc3[nH]nc(Br)c23)CC1 [Entry 37, 3-bromo-4-(4-{5-chloro-2-methyl-3-[(3-piperidin-1-ylpropyl)oxy]phenyl}piperazin-1-yl)-1H-pyrazolo[3,4-d]pyrimidine]
- IC50 (p70S6K): < 100 nM
- IC50 (AktK): 100 to 1000 nM

SMILES: Cc1c(OCCCN2CCOCC2)cc(Cl)cc1N1CCN(c2ncnc3[nH]nc(Br)c23)CC1 [Entry 38, 3-bromo-4-(4-{5-chloro-2-methyl-3-[(3-morpholin-4-ylpropyl)oxy]phenyl}piperazin-1-yl)-1H-pyrazolo[3,4-d]pyrimidine]
- IC50 (p70S6K): < 100 nM
- IC50 (AktK): 100 to 1000 nM

SMILES: Cc1c(OCCN2CCCC2)cc(Cl)cc1N1CCN(c2ncnc3[nH]nc(C(F)(F)F)c23)CC1 [Entry 39, 4-(4-{5-chloro-2-methyl-3-[(2-pyrrolidin-1-ylethyl)oxy]phenyl}piperazin-1-yl)-3-(trifluoromethyl)-1H-pyrazolo[3,4-d]pyrimidine]
- IC50 (p70S6K): < 100 nM
- IC50 (AktK): 100 to 1000 nM

SMILES: Cc1c(OCCCN2CCOCC2)cc(Cl)cc1N1CCN(c2ncnc3[nH]nc(C(F)(F)F)c23)CC1 [Entry 40, 4-(4-{5-chloro-2-methyl-3-[(3-morpholin-4-ylpropyl)oxy]phenyl}piperazin-1-yl)-3-(trifluoromethyl)-1H-pyrazolo[3,4-d]pyrimidine]
- IC50 (p70S6K): < 100 nM
- IC50 (AktK): 1000 to 10000 nM

SMILES: Cc1c(OCCN2CCOCC2)cc(Cl)cc1N1CCN(c2ncnc3[nH]nc(C(F)(F)F)c23)CC1 [Entry 41, 4-(4-{5-chloro-2-methyl-3-[(2-morpholin-4-ylethyl)oxy]phenyl}piperazin-1-yl)-3-(trifluoromethyl)-1H-pyrazolo[3,4-d]pyrimidine]
- IC50 (p70S6K): < 100 nM
- IC50 (AktK): 1000 to 10000 nM

SMILES: CCN(CC)CCCOc1cc(Cl)cc(N2CCN(c3ncnc4[nH]nc(C(F)(F)F)c34)CC2)c1C [Entry 56, 3-[(5-chloro-2-methyl-3-{4-[3-(trifluoromethyl)-1H-pyrazolo[3,4-d]pyrimidin-4-yl]piperazin-1-yl}phenyl)oxy]-N,N-diethylpropan-1-amine]
- IC50 (p70S6K): < 100 nM
- IC50 (AktK): 100 to 1000 nM

SMILES: Cc1ccc(N2CCN(c3ncnc4[nH]nc(Br)c34)CC2)cc1NCCN1CCCC1 [Entry 57, 5-[4-(3-bromo-1H-pyrazolo[3,4-d]pyrimidin-4-yl)piperazin-1-yl]-2-methyl-N-(2-pyrrolidin-1-ylethyl)aniline]
- IC50 (p70S6K): 100 to 1000 nM
- IC50 (AktK): 1000 to 10000 nM

SMILES: Cc1c(NCCN2CCCC2)cc(F)cc1N1CCN(c2ncnc3[nH]nc(Br)c23)CC1 [Entry 58, 3-[4-(3-bromo-1H-pyrazolo[3,4-d]pyrimidin-4-yl)piperazin-1-yl]-5-fluoro-2-methyl-N-(2-pyrrolidin-1-ylethyl)aniline]
- IC50 (p70S6K): < 100 nM
- IC50 (AktK): 100 to 1000 nM

SMILES: Cc1c(CCCN2CCCC2)cc(Cl)cc1N1CCN(c2ncnc3[nH]ncc23)CC1 [Entry 59, 4-{4-[5-chloro-2-methyl-3-(3-pyrrolidin-1-ylpropyl)phenyl]piperazin-1-yl}-1H-pyrazolo[3,4-d]pyrimidine]
- IC50 (p70S6K): < 100 nM
- IC50 (AktK): 1000 to 10000 nM

SMILES: Cc1c(CCCN2CCCC2)cc(F)cc1N1CCN(c2ncnc3[nH]nc(Br)c23)CC1 [Entry 60, 3-bromo-4-{4-[5-fluoro-2-methyl-3-(3-pyrrolidin-1-ylpropyl)phenyl]piperazin-1-yl}-1H-pyrazolo[3,4-d]pyrimidine]
- IC50 (p70S6K): < 100 nM
- IC50 (AktK): 100 to 1000 nM

SMILES: Cc1c(CCCN2CCCC2)cc(Cl)cc1N1CCN(c2ncnc3[nH]nc(C(F)(F)F)c23)CC1 [Entry 61, 4-{4-[5-chloro-2-methyl-3-(3-pyrrolidin-1-ylpropyl)phenyl]piperazin-1-yl}-3-(trifluoromethyl)-1H-pyrazolo[3,4-d]pyrimidine]
- IC50 (p70S6K): < 100 nM
- IC50 (AktK): < 100 nM

SMILES: CCc1n[nH]c2ncnc(N3CCN(c4cc(Cl)cc(CCCN5CCN(C)CC5)c4C)CC3)c12 [Entry 62, 4-(4-{5-chloro-2-methyl-3-[3-(4-methylpiperazin-1-yl)propyl]phenyl}piperazin-1-yl)-3-ethyl-1H-pyrazolo[3,4-d]pyrimidine]
- IC50 (p70S6K): < 100 nM
- IC50 (AktK): 100 to 1000 nM

SMILES: Brc1n[nH]c2ncnc(N3CCN(c4ccccn4)CC3)c12 [Entry 63, 3-bromo-4-(4-pyridin-2-ylpiperazin-1-yl)-1H-pyrazolo[3,4-d]pyrimidine]
- IC50 (p70S6K): 100 to 1000 nM
- IC50 (AktK): 1000 to 10000 nM

SMILES: Cc1ccc(N2CCN(c3ncnc4[nH]nc(Br)c34)CC2)c(C)c1 [Entry 64, 3-bromo-4-[4-(2,4-dimethylphenyl)piperazin-1-yl]-1H-pyrazolo[3,4-d]pyrimidine]
- IC50 (p70S6K): 100 to 1000 nM
- IC50 (AktK): 1000 to 10000 nM

SMILES: COc1cccc(N2CCN(c3ncnc4[nH]nc(Br)c34)CC2)c1 [Entry 65, 3-bromo-4-{4-[3-(methyloxy)phenyl]piperazin-1-yl}-1H-pyrazolo[3,4-d]pyrimidine]
- IC50 (p70S6K): < 100 nM
- IC50 (AktK): 1000 to 10000 nM

SMILES: COc1ccccc1N1CCN(c2ncnc3[nH]nc(Br)c23)CC1 [Entry 66, 3-bromo-4-{4-[2-(methyloxy)phenyl]piperazin-1-yl}-1H-pyrazolo[3,4-d]pyrimidine]
- IC50 (p70S6K): < 100 nM
- IC50 (AktK): ≥ 10000 nM

SMILES: Cc1ccc(N2CCN(c3ncnc4[nH]nc(Br)c34)CC2)cc1CCCN1CCCC1 [Entry 67, 3-bromo-4-{4-[4-methyl-3-(3-pyrrolidin-1-ylpropyl)phenyl]piperazin-1-yl}-1H-pyrazolo[3,4-d]pyrimidine]
- IC50 (p70S6K): 100 to 1000 nM
- IC50 (AktK): 1000 to 10000 nM

SMILES: Cc1c(OCCCN2CCCC2)cc(Cl)cc1N1CCN(c2ncnc3[nH]nc(C(F)(F)F)c23)CC1 [Entry 68, 4-(4-{5-chloro-2-methyl-3-[(3-pyrrolidin-1-ylpropyl)oxy]phenyl}piperazin-1-yl)-3-(trifluoromethyl)-1H-pyrazolo[3,4-d]pyrimidine]
- IC50 (p70S6K): < 100 nM
- IC50 (AktK): 100 to 1000 nM

SMILES: Cc1c(OCCCN2CCCCC2)cc(Cl)cc1N1CCN(c2ncnc3[nH]nc(C(F)(F)F)c23)CC1 [Entry 69, 4-(4-{5-chloro-2-methyl-3-[(3-piperidin-1-ylpropyl)oxy]phenyl}piperazin-1-yl)-3-(trifluoromethyl)-1H-pyrazolo[3,4-d]pyrimidine]
- IC50 (p70S6K): < 100 nM
- IC50 (AktK): 100 to 1000 nM
